Results as given in US20030061633A1, “Modified dhps genes” (priority 1999, published 2003).
pIC50: −log10 of the molar value.

Key:
DHPS = DHPS enzyme activity in transgenic tubers (O-aminobenzaldehyde method); type: biochemical; conditions: transformed (mutant DHPS) versus control potato tubers
Description: Microtubers or mature tubers were homogenised with mortar and pestle in an equal volume of cold 100 mM Tris-HCl pH 7.5 containing 2 mM EDTA, 1.4% sodium ascorbate, 1 mM phenylmethylsulphonilfluoride and 0.5 Tg/ml leupeptin. Following 5 min. centrifugation (16,000 g at 4° C.) the supernatant is collected. DHPS activity was measured using the O-aminobenzaldehyde (O-ABA) method of Yugari and Gilvarg (Yugari, Y. and Gilvarg, C. (1965) J. Biol. Chem. 240: 4710-4716).

E. coli DHPS = E. coli DHPS (Escherichia coli, UniProt P0A6L2); conditions: read-out: I50 of E. coli DHPS for lysine; cited from earlier work
E. coli DHPS, sequence (P0A6L2 whole entry): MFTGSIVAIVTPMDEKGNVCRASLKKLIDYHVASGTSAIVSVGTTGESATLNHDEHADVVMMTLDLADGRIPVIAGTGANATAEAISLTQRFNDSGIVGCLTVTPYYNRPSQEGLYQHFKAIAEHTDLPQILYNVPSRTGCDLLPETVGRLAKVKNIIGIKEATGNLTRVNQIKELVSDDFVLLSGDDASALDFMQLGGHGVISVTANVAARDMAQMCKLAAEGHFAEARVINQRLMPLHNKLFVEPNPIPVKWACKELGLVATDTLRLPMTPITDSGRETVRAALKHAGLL

[1] = tested on: dihydrodipicolinate synthase (DHPS); conditions: cited from earlier work

| Compound | AEC sensitivity of DHPS activity (DHPS) | pIC50 (E. coli DHPS) | sensitivity of plant DHPS to lysine inhibition relative to E. coli DHPS ([1]; more sensitive than E. coli DHPS) | sensitivity of plant DHPS to lysine inhibition relative to plant lysine-sensitive AKs ([1]; more sensitive than plant lysine-sensitive AKs) |
| --- | --- | --- | --- | --- |
| NCCSC[C@H](N)C(=O)O [AEC, S-(2-aminoethyl)-L-cysteine] | reduced |  |  |  |
| NCCCC[C@H](N)C(=O)O [lysine] |  | ~3.00 | about 100 fold | about 10 fold |
